Experimental data published in ChEMBL document CHEMBL2440029, “Discovery and characterization of NVP-QAV680, a potent and selective CRTh2 receptor antagonist suitable for clinical testing in allergic diseases” (Bioorg Med Chem, 2013).
≈ marks a conversion by molar mass, not a printed value. Calls of active or inactive are those of the source. The rule behind the calls is not given here.

Key:
[1] = biological target: T1, Prostaglandin D2 receptor 2 (Homo sapiens) (UniProt Q9Y5Y4); experiment: Antagonist activity at human CRTh2 receptor expressed in CHO cells assessed as inhibition of prostaglandin D2 and forskolin-induced cAMP accumulation after 45 mins in presence of 0.1% HSA; type: functional, cell-based
T1 sequence (whole entry): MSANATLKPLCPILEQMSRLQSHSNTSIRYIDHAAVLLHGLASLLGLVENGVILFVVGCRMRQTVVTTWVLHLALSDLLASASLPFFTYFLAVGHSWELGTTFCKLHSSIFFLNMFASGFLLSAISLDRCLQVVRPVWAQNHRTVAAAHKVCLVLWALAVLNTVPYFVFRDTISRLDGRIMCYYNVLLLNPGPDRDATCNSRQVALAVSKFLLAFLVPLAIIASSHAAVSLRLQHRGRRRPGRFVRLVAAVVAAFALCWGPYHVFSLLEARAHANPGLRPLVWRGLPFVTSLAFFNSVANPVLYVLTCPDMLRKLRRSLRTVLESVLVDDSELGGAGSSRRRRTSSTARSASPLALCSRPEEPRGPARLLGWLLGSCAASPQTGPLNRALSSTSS

[2] = biological target: T2, Prostaglandin D2 receptor 2 (Homo sapiens, UniProt Q9Y5Y4); experiment: Displacement of [3H]-prostaglandin D2 from human CRTh2 receptor expressed in CHO cells after 2 hrs; type: cell-based
T2 sequence (Q9Y5Y4 whole entry): T1 sequence (whole entry)

[3] = biological target: T2, Prostaglandin D2 receptor 2; experiment: Antagonist activity at human CRTh2 receptor expressed in CHO cells assessed as inhibition of prostaglandin D2 and forskolin-induced cAMP accumulation after 45 mins; type: functional, cell-based
[4] = Volume of distribution at steady state in Wistar rat at 0.5 mg/kg, iv; type: ADME, organism-based; set-up: dose 0.5 mg/kg, route intravenous; settings: in vivo, read-out: Vdss
[5] = Apparent permeability from basolateral to apical side in human Caco2 cells; type: ADME, cell-based; settings: Caco-2
[6] = biological target: T3, Prostaglandin G/H synthase 2 (Homo sapiens) (UniProt P35354); experiment: Inhibition of human COX2 at 10 uM
T3 sequence (whole entry): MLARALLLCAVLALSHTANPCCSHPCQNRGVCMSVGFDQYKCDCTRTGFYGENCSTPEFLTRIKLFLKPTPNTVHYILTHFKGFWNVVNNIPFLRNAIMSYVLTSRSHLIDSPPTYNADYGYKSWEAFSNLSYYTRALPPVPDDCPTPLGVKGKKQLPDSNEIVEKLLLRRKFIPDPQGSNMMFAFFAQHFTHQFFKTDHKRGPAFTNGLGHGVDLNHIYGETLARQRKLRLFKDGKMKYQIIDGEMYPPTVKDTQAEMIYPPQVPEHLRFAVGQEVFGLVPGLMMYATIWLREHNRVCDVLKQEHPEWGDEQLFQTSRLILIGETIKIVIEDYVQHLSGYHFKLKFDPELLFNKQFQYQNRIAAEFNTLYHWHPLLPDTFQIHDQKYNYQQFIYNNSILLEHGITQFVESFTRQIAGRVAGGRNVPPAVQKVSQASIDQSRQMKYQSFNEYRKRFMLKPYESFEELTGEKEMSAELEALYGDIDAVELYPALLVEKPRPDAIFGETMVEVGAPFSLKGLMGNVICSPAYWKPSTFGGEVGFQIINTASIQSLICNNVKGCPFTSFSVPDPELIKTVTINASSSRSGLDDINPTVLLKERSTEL

[7] = Oral bioavailability in Wistar rat at 100 mg/kg; type: ADME, organism-based; settings: in vivo
[8] = AUC (0 to 48 hrs) in Wistar rat at 3 mg/kg, po; type: ADME, organism-based; set-up: time < 48 hr, dose 3 mg/kg, route oral; settings: plasma
[9] = Tmax in Wistar rat at 3 mg/kg, po; type: ADME, organism-based; set-up: dose 3 mg/kg, route oral; settings: in vivo
[10] = Apparent permeability from apical to basolateral side in human Caco2 cells; type: ADME, cell-based; settings: Caco-2
Rattus norvegicus [11] = experiment: Inhibition of eosinophil recruitment in bronchoalveolar lavage in po dosed Sprague-Dawley rat allergic disease model; type: functional, organism-based; settings: Lung
[12] = biological target: Prostaglandin F2-alpha receptor (Homo sapiens, UniProt P43088); experiment: Inhibition of prostanoid FP receptor (unknown origin)
Chain of Prostaglandin F2-alpha receptor (P43088 whole entry): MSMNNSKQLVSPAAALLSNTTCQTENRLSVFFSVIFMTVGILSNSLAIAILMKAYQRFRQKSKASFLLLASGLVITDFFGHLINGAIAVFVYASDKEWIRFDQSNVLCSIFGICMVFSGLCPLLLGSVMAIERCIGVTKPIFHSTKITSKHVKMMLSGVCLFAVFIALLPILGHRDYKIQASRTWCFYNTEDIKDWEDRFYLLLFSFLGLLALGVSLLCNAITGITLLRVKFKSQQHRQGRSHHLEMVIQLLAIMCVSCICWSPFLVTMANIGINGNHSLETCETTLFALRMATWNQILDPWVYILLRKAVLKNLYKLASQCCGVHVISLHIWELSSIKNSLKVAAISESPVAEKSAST

[13] = biological target: Cysteinyl leukotriene receptor 1 (Homo sapiens) (UniProt Q9Y271); experiment: Inhibition of CysLT1 receptor (unknown origin) at 10 uM
[14] = Tmax in Wistar rat at 100 mg/kg, po; type: ADME, organism-based; set-up: dose 100 mg/kg, route oral; settings: in vivo
[15] = Cmax in Balb/c mouse at 5 mg/kg, po; type: ADME, organism-based; set-up: dose 5 mg/kg, route oral; settings: in vivo
[16] = biological target: T4, Prostaglandin D2 receptor 2 (Mus musculus, UniProt Q9Z2J6); experiment: Antagonist activity at mouse CRTh2 receptor expressed in CHO-K1 cells assessed as inhibition of […]-GTP-gamma-S binding after 50 mins by liquid scintillation counting; type: functional, cell-based
T4 sequence (Q9Z2J6 whole entry): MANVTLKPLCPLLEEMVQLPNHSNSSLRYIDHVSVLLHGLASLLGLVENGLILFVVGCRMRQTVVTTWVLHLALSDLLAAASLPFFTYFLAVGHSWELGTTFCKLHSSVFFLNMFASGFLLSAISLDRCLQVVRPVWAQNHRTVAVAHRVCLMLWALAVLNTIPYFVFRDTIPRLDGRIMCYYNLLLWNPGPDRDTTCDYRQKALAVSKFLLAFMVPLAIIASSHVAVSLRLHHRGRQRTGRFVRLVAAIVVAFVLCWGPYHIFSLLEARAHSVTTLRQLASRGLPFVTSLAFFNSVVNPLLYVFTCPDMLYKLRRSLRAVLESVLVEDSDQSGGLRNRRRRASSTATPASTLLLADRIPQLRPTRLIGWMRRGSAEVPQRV

Rattus norvegicus [17] = experiment: Inhibition of eosinophil recruitment in bronchoalveolar lavage in Sprague-Dawley rat allergic disease model at 1 mg/kg, po; type: functional, organism-based; set-up: dose 1 mg/kg; settings: Lung
Cytochrome P450 2C9 = Cytochrome P450 2C9 (Homo sapiens, UniProt P11712); experiment: Inhibition of human CYP2C9; type: ADME
Chain of Cytochrome P450 2C9 (P11712 whole entry): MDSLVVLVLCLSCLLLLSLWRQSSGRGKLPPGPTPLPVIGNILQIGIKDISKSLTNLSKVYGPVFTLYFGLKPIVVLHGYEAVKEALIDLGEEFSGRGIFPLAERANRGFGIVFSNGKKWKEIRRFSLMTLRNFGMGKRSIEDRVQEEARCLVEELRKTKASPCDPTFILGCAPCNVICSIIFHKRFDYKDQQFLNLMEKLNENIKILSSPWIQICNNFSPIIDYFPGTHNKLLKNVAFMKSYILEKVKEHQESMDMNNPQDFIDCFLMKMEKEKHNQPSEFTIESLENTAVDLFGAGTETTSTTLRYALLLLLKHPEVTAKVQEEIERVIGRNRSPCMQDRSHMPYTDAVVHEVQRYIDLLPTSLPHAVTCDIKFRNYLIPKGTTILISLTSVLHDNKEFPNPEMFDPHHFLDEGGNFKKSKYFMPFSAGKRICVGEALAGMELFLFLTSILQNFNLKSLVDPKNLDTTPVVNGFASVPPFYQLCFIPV

[18] = biological target: Prostaglandin G/H synthase 1 (Homo sapiens) (UniProt P23219); experiment: Inhibition of human COX1 at 10 uM
Chain of Prostaglandin G/H synthase 1 (Homo sapiens) (P23219 whole entry): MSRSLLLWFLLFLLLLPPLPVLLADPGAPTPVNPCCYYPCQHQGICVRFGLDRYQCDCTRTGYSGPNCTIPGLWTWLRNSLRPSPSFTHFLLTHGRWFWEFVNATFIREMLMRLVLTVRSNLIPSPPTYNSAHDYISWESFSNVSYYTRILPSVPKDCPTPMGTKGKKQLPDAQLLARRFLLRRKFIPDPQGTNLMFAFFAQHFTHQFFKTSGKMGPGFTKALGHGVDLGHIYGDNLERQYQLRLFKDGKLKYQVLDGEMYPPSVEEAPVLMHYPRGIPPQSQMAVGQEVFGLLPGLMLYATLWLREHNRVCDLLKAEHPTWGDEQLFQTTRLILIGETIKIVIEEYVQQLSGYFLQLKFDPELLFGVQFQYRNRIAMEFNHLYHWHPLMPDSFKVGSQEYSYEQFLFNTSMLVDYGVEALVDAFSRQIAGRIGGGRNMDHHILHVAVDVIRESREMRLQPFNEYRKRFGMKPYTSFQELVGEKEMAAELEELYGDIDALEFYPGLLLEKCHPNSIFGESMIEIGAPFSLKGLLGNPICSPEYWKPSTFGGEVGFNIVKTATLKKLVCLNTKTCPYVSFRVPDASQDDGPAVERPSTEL

[19] = Clearance in Wistar rat at 0.5 mg/kg, iv; type: ADME, organism-based; set-up: dose 0.5 mg/kg, route intravenous; settings: in vivo
[20] = Solubility of the compound at pH 6.8; type: physicochemical; settings: buffer
Thromboxane A2 receptor = Thromboxane A2 receptor (Homo sapiens, UniProt P21731); experiment: Inhibition of prostanoid TP receptor (unknown origin)
[21] = Fraction unbound in Sprague-Dawley rat plasma at 0.1 to 0.3 mg/kg, po; type: ADME, organism-based; set-up: dose 0.1-0.3 mg/kg, route oral
[22] = biological target: Prostaglandin E2 receptor EP2 subtype (Homo sapiens, UniProt P43116); experiment: Inhibition of prostanoid EP2 receptor (unknown origin)
Chain of Prostaglandin E2 receptor EP2 subtype (P43116 whole entry): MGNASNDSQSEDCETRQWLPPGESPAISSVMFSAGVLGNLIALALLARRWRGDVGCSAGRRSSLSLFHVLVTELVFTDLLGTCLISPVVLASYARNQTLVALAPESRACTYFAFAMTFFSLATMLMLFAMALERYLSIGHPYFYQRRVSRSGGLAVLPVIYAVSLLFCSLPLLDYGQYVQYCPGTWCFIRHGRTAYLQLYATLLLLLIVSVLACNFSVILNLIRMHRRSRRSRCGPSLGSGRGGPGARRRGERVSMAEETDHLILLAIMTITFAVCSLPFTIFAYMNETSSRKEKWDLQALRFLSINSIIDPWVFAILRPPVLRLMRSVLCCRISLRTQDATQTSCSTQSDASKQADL

[23] = Oral bioavailability in Wistar rat at 3 mg/kg; type: ADME, organism-based; settings: in vivo
Cytochrome P450 3A4 = Cytochrome P450 3A4 (Homo sapiens, UniProt P08684); experiment: Inhibition of human CYP3A4; type: ADME
Chain of Cytochrome P450 3A4 (P08684 whole entry): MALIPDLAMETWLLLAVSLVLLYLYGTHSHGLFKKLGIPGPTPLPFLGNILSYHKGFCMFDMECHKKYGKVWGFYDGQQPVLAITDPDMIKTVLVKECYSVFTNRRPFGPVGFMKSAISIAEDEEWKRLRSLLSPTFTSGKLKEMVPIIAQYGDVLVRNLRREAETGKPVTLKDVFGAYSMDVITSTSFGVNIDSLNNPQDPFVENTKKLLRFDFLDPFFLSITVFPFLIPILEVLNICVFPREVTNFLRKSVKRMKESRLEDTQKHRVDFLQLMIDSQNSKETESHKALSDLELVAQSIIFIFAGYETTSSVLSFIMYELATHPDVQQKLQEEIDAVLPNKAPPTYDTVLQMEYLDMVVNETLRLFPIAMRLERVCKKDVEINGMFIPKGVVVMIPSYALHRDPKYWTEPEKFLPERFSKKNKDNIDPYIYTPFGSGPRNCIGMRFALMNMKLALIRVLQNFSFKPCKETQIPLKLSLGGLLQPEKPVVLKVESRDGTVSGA

[24] = Inhibition of DK-PGD2-induced IL-13 production in human CD4+ Th2 cells after 6 to 8 hrs; type: functional, cell-based
[25] = biological target: Leukotriene B4 receptor 1 (Homo sapiens) (UniProt Q15722); experiment: Inhibition of LTB4 receptor (unknown origin) at 10 uM
Chain of Leukotriene B4 receptor 1 (Homo sapiens) (Q15722 whole entry): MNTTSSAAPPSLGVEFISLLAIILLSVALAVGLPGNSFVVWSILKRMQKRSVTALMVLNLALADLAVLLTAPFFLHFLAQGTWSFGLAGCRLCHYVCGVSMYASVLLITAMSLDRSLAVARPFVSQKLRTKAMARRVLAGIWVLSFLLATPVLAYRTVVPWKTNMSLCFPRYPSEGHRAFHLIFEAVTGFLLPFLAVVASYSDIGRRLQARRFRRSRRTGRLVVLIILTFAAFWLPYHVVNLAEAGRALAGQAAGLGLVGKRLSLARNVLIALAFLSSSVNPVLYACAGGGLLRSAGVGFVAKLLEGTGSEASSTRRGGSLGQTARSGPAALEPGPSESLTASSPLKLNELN

[26] = Cmax in Wistar rat at 100 mg/kg, po; type: ADME, organism-based; set-up: dose 100 mg/kg, route oral; settings: in vivo
Cytochrome P450 2D6 = Cytochrome P450 2D6 (Homo sapiens, UniProt P10635); experiment: Inhibition of human CYP2D6; type: ADME
Prostacyclin receptor = Prostacyclin receptor (Homo sapiens, UniProt P43119); experiment: Inhibition of prostanoid IP receptor (unknown origin)
Chain of Prostacyclin receptor (P43119 whole entry): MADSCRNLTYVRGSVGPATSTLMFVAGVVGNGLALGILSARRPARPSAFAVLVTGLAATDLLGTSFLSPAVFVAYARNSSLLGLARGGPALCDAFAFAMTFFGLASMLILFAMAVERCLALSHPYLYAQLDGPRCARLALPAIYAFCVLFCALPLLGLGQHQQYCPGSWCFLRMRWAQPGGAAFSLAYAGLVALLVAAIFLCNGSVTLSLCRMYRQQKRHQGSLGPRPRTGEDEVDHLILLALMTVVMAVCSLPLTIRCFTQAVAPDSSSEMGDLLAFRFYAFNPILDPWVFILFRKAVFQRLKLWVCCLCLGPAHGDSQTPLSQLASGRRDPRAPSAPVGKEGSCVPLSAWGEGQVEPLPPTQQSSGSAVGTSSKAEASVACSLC

[27] = AUC (0 to 48 hrs) in Wistar rat at 100 mg/kg, po; type: ADME, organism-based; set-up: time < 48 hr, dose 100 mg/kg, route oral; settings: plasma
Cytochrome P450 1A2 = Cytochrome P450 1A2 (Homo sapiens, UniProt P05177); experiment: Inhibition of human CYP1A2; type: ADME
Chain of Cytochrome P450 1A2 (P05177 whole entry): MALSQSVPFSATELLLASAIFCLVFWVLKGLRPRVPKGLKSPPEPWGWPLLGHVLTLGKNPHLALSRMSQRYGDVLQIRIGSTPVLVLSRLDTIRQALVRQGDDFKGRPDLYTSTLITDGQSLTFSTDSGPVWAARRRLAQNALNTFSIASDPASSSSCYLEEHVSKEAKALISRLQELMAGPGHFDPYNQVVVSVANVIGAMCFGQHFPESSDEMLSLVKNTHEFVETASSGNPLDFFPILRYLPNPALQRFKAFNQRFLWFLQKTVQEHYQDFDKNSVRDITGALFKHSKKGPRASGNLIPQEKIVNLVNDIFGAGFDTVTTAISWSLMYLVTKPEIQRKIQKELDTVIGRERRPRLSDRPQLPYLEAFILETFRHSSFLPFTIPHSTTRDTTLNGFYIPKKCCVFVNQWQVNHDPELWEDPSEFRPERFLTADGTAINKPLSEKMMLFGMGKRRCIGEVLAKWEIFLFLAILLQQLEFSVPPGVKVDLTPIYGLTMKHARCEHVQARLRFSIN

[28] = Inhibition of DK-PGD2-induced IL-5 production in human CD4+ Th2 cells after 6 to 8 hrs; type: functional, cell-based
[29] = biological target: T4, Prostaglandin D2 receptor 2; experiment: Displacement of [3H]-prostaglandin D2 from mouse CRTh2 receptor expressed in CHO cells after 2 hrs; type: cell-based
Mus musculus = experiment: Inhibition of FITC hapten-induced ear edema in po dosed Balb/cJBomTac mouse allergic contact dermatitis model after 24 hrs; type: functional
[30] = Cmax in Wistar rat at 3 mg/kg, po; type: ADME, organism-based; set-up: dose 3 mg/kg, route oral; settings: in vivo
[31] = biological target: Prostaglandin E2 receptor EP3 subtype (Homo sapiens, UniProt P43115); experiment: Inhibition of prostanoid EP3 receptor (unknown origin)
Chain of Prostaglandin E2 receptor EP3 subtype (P43115 whole entry): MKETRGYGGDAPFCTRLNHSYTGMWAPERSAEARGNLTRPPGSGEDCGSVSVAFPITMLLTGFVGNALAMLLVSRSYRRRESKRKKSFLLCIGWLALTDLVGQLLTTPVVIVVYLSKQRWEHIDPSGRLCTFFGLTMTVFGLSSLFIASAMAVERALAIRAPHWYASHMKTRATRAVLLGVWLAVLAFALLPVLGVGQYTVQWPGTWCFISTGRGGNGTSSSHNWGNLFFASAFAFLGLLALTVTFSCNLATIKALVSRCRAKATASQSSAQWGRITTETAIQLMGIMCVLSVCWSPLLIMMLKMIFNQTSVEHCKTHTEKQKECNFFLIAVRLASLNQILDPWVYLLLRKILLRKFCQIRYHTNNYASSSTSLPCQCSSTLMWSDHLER

[32] = Terminal half life in Wistar rat at 0.5 mg/kg, iv; type: ADME, organism-based; set-up: dose 0.5 mg/kg, route intravenous; settings: in vivo, read-out: beta t1/2 (converted)
[33] = biological target: Prostaglandin E2 receptor EP4 subtype (Homo sapiens, UniProt P35408); experiment: Inhibition of prostanoid EP4 receptor (unknown origin)
[34] = biological target: Prostaglandin D2 receptor (Homo sapiens, UniProt Q13258); experiment: Inhibition of prostanoid DP1 receptor (unknown origin)
Chain of Prostaglandin D2 receptor (Q13258 whole entry): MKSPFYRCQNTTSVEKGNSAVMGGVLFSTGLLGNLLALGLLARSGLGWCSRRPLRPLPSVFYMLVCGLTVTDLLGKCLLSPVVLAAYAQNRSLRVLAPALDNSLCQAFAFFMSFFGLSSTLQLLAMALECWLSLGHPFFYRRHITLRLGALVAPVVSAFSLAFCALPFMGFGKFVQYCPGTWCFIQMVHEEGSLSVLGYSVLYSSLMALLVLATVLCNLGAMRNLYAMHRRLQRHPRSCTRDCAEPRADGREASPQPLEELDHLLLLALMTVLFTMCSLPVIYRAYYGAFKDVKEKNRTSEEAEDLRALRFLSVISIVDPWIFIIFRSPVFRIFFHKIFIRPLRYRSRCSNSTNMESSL

[35] = biological target: Cysteinyl leukotriene receptor 2 (Homo sapiens) (UniProt Q9NS75); experiment: Inhibition of CysLT2 receptor (unknown origin) at 10 uM
[36] = biological target: Polyunsaturated fatty acid 5-lipoxygenase (Homo sapiens) (UniProt P09917); experiment: Inhibition of human 5-lipoxygenase at 10 uM
[37] = Antagonist activity at CRTh2 receptor in human isolated eosinophil assessed as inhibition of DK-PGD2-induced shape change after 5 mins by flow cytometry

SMILES: Cc1c(CC(=O)O)c2cccnc2n1Cc1ccc([N+](=O)[O-])cc1
- fold change (FC) [1]: 4.1

SMILES: Cc1c(CC(=O)O)c2cccnc2n1Cc1ccccc1Cl
- Ki [2]: 624 nM

SMILES: Cc1c(CC(=O)O)c2cccnc2n1Cc1cccnc1
- Ki [2]: 1060 nM

SMILES: Cc1c(CC(=O)O)c2cccnc2n1Cc1ccc(S(=O)(=O)C(F)(F)F)cc1
- Ki [2]: 208 nM
- IC50 [3]: 147 nM
- fold change (FC) [1]: 0.9

SMILES: Cc1c(CC(=O)O)c2cccnc2n1S(=O)(=O)c1ccc(F)c(F)c1
- fold change (FC) [1]: 1.3

SMILES: Cc1c(CC(=O)O)c2cccnc2n1Cc1ccccn1
- Ki [2]: 2940 nM

SMILES: Cc1c(CC(=O)O)c2cccnc2n1Cc1ccc(S(C)(=O)=O)cc1 [QAV680]
- Vd [4]: 5.5 L/kg
- Papp B→A [5]: 2.2 ×10⁻⁶ cm/s
- inhibition [6]: inactive
- bioavailability [7]: 35%
- AUC(0-t) at 48 h [8]: 6.06 µM·h
- Tmax [9]: 39.6 min
- Papp A→B [10]: 0.9 ×10⁻⁶ cm/s
- Activity (Rattus norvegicus [11]): Dose-dependent effect
- IC50 [12]: > 10000 nM
- inhibition [13]: inactive
- Tmax [14]: 39.6 min
- Cmax [15]: 7.6 µM
- IC50 [16]: 94 nM
- Activity (Rattus norvegicus [17]): Active
- IC50 (Cytochrome P450 2C9): > 100000 nM
- inhibition [18]: inactive
- clearance [19]: 15.2 mL/min/kg
- solubility [20]: 5200 µg/mL (≈ 14.5 mM)
- IC50 (Thromboxane A2 receptor): > 10000 nM
- fraction unbound [21]: 0.34
- IC50 [22]: > 10000 nM
- bioavailability [23]: 54%
- IC50 (Cytochrome P450 3A4): > 100000 nM
- IC50 [24]: 25 nM
- inhibition [25]: inactive
- Cmax [26]: 42.7 µM
- IC50 (Cytochrome P450 2D6): > 100000 nM
- IC50 (Prostacyclin receptor): > 10000 nM
- Ki [2]: 36 nM
- AUC(0-t) at 48 h [27]: 128 µM·h
- IC50 (Cytochrome P450 1A2): > 100000 nM
- IC50 [28]: 59 nM
- Ki [29]: 10 nM
- inhibition (Mus musculus): Dose-dependent effect
- minimal effective dose (Mus musculus; read-out: MED): 10 mg/kg
- IC50 [3]: 37 nM
- fold change (FC) [1]: 3.1
- Cmax [30]: 2.6 µM
- IC50 [31]: > 10000 nM
- half-life [32]: 1030 min
- IC50 [33]: > 10000 nM
- IC50 [34]: > 10000 nM
- inhibition [35]: inactive
- inhibition [36]: inactive

SMILES: Cc1c(CC(=O)O)c2cccnc2n1Cc1ccc([S+](C)[O-])cc1 (racemic)
- Ki [2]: 249 nM
- IC50 [3]: 233 nM
- fold change (FC) [1]: 3.1

SMILES: Cc1c(CC(=O)O)c2cccnc2n1Cc1ccc(Cl)cc1
- inhibition [6]: inactive
- inhibition [18]: inactive
- Ki [2]: 149 nM
- IC50 [3]: 484 nM
- fold change (FC) [1]: 4.1

SMILES: Cc1c(CC(=O)O)c2cccnc2n1Cc1ccc(C#N)cc1
- Ki [2]: 379 nM
- IC50 [3]: 554 nM
- fold change (FC) [1]: 3.6

SMILES: Cc1c(CC(=O)O)c2cccnc2n1S(=O)(=O)c1ccc(Cl)cc1
- inhibition [6]: inactive
- inhibition [18]: inactive
- IC50 [37]: 108 nM
- IC50 [3]: 565 nM
- fold change (FC) [1]: 3.8

SMILES: Cc1c(CC(=O)O)c2cccnc2n1Cc1ccncc1
- Ki [2]: 2230 nM
